Columns and labels:
[1] = GA glucuronidation kinetics in cynomolgus monkey liver microsomes; assay type: in vitro ADME, cynomolgus monkeys; details: CyLM; for Km at 60 min: cynomolgus monkey, liver microsomes, pH 7.4, Km (KS), Michaelis–Menten
[2] = target: T1, recombinant human UGT2B15 (Homo sapiens, UniProt P54855); test: GA glucuronidation by recombinant UGT2B15; assay type: in vitro ADME; details: UGT2B15, whole range of substrate concentrations
T1 sequence (P54855 24-530): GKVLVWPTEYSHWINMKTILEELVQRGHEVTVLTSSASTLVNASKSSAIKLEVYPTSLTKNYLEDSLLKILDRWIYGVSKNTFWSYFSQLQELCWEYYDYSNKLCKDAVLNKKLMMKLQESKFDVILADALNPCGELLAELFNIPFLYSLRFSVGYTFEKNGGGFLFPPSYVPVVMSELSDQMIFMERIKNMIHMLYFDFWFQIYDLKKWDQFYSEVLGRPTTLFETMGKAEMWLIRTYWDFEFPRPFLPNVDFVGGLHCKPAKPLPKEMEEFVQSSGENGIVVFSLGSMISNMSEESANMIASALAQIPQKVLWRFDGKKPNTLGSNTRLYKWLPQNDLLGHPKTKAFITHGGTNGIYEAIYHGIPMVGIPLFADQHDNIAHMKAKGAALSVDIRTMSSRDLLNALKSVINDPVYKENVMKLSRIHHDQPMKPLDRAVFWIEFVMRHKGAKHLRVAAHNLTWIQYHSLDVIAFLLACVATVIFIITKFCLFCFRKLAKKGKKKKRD

[3] = target: T2, UGT1A1 (Homo sapiens, UniProt P22309); test: GA glucuronidation kinetics by recombinant UGT1A1; assay type: in vitro ADME; details: recombinant human UGT1A1, pH 7.4, Clint
T2 sequence (P22309 26-533): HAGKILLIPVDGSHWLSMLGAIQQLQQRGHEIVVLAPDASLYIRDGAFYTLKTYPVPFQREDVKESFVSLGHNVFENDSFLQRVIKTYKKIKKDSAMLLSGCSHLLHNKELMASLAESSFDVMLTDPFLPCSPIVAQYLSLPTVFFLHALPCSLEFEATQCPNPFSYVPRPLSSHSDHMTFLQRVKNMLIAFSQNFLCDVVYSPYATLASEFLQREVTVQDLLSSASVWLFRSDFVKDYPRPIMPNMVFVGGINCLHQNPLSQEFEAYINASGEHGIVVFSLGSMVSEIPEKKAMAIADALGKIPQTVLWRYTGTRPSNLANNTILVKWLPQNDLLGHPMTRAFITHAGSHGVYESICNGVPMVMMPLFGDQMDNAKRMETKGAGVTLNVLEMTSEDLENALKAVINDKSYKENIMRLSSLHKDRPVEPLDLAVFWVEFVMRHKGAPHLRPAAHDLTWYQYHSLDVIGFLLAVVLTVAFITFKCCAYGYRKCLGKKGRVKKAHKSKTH

[4] = GA glucuronidation kinetics in human liver microsomes; assay type: in vitro ADME; details: HLM; for microsomal CLint / Km at 60 min: both, human; for microsomal CLint: human liver microsomes; for Km at 60 min: liver microsomes, pH 7.4, Km (KS), Michaelis–Menten
[5] = target: T3, UGT1A8 (Homo sapiens, UniProt Q9HAW9); test: GA glucuronidation by recombinant UGT1A8; assay type: in vitro ADME
T3 sequence (Q9HAW9 26-530): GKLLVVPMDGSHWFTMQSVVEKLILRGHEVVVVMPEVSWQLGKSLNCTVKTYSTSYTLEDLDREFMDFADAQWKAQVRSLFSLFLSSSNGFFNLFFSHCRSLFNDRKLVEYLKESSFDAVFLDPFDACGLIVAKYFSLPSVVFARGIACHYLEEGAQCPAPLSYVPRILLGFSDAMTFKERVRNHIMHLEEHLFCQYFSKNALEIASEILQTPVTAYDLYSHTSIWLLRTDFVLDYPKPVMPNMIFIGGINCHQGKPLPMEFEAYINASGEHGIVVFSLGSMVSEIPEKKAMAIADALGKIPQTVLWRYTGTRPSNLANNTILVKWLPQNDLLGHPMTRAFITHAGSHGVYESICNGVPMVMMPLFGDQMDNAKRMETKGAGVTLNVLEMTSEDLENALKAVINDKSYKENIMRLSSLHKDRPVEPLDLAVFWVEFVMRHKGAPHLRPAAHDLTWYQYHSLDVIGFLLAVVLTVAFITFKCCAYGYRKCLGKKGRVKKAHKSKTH

[6] = GA glucuronidation kinetics in rat intestinal microsomes; assay type: in vitro ADME, Sprague-Dawley rats
[7] = system: CYP3A4; details: earlier study; cited from earlier work
[8] = target: T4, recombinant human UGT2B7 (Homo sapiens, UniProt P16662); test: GA glucuronidation by recombinant UGT2B7; assay type: in vitro ADME; details: UGT2B7, whole range of substrate concentrations
T4 sequence (P16662 24-529): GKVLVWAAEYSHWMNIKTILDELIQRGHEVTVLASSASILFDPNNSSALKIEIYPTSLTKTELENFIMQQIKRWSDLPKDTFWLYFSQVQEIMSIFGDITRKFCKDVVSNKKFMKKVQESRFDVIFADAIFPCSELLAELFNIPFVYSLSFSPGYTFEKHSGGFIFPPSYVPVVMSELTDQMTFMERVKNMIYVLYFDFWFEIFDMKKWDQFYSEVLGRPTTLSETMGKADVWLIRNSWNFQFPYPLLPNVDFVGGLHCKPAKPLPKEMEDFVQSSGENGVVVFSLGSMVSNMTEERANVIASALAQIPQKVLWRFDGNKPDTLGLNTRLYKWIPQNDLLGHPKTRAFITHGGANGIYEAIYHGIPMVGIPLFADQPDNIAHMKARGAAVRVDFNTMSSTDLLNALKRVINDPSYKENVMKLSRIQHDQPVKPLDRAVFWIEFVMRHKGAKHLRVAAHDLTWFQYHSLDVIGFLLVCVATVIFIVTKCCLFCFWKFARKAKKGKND

[9] = rats; cited from earlier work

Km at 60 min ([1]; M1 formation): 10 ± 3 µM | Km at 60 min ([1]; M2 formation): 35 ± 11 µM | GA glucuronidation activity [2]: < 0.04 nmol/min/mg | microsomal CLint ([3]; UGT1A1, M1 formation): 22 µL/min/mg | microsomal CLint ([3]; UGT1A1, M2 formation): 5 µL/min/mg | microsomal CLint ([4]; pH 7.4, Clint, M1 formation, Vmax/Km): 7 µL/min/mg | microsomal CLint ([4]; pH 7.4, Clint, M2 formation, Vmax/Km): 10 µL/min/mg | microsomal CLint ([4]; pH 7.4, Cltotal, M1 + M2): 17 µL/min/mg | Km at 60 min ([4]; M1 formation): 6.3 ± 3.6 µM | Km at 60 min ([4]; M2 formation): 24.2 ± 5.7 µM | catalytic activity of UGT1A8 relative to other isoforms ([5]; 2 µM GA, 0.1 mg/mL recombinant UGTs, 60 min): more than 5 fold | KSI ([5]; UGT1A8, M2 formation): 1.7 ± 0.4 µM | microsomal CLint ([5]; human, recombinant UGT1A8, pH 7.4): 172 µL/min/mg | Clint of UGT1A8 relative to other isoforms ([5]; recombinant UGTs): more than 5 fold | Km at 20 min ([6]; male, Sprague-Dawley, rat, intestinal microsomes, pH 7.4): 3.8 ± 1.1 µM | microsomal CLint ([6]; male, Sprague-Dawley, rat, rat intestinal microsomes, pH 7.4, Cltotal, RIM): 5000 µL/min/mg | GA glucuronidation activity [8]: < 0.04 nmol/min/mg
SMILES: CC1(C)C=Cc2c(ccc3c2OC[C@@H](c2ccc(O)cc2O)C3)O1 [GA, glabridin]
Vmax ([1]; M1 formation): 0.051 ± 0.005 nmol/min/mg | Vmax ([1]; M2 formation): 0.51 ± 0.09 nmol/min/mg | Vmax ([4]; M1 formation): 0.044 ± 0.005 nmol/min/mg | Vmax ([4]; M2 formation): 0.25 ± 0.03 nmol/min/mg | KSI ([6]; RIM, M2 formation): 5.3 ± 2.5 µM | Vmax ([6]; RIM, M2 formation): 19 ± 6 nmol/min/mg | inhibition of CYP3A4 [7]: mechanism-based inhibitor | oral availability [9]: about 7.5 % of the oral dose

Source: paper PMC6300978 (Chemico-biological interactions, 2015)
